Assay: Solubility of biocide in solvent system (A1+A2)
Type: physicochemical
Experimental: General method of preparing emulsifiable composition (C): Component (A1) and component (A2) were mixed and heated to a temperature in the range of 20° C. to 100° C. to obtain a solution. Respective amount of the biocide was charged to the above solution at a temperature in the range of 20° C. to 100° C. to obtain the solution containing biocide. Emulsifier and other optional ingredients were charged o to the above biocide containing solution to obtain the emulsifiable composition (C).

CO/C=C(/C(=O)OC)c1ccccc1Oc1cc(Oc2ccccc2C#N)ncn1 [Azoxystrobin]
Solubility wt. % in total (C) (solvent system Acetophenone (A1) / 2-Methoxy-4-Methylphenol (A2), molar ratio A1:A2 1:1): 27 wt. %
Solubility wt. % in total (C) (solvent system Acetophenone (A1) / 2-sec-Butylphenol (A2), molar ratio A1:A2 1:1): 32 wt. %
Solubility wt. % in total (C) (solvent system Acetophenone (A1) / Phenyl acetic acid (A2), molar ratio A1:A2 2:1): 25 wt. %
Solubility wt. % in total (C) (solvent system Acetophenone (A1) / Thymol (A2), molar ratio A1:A2 1:1): 28 wt. %

Reference: patent US20250008950A1, “BIOCIDE COMPOSITIONS” (BASF SE, priority 2021, published 2025)
